# Laboratory results reported in US9907857B2, “Peptide having cell membrane penetrating activity” (EWHA UNIVERSITY-INDUSTRY COLLABORATION FOUNDATION, priority 2006, dated 2018).
# Columns and labels:
# Format in all cases: cell-based
# HeLa cells [1] = experiment: Cell penetrating efficiency of rhodamine-labelled TCTP-derived peptides, microplate fluorescence reader; details: for intracellular translocation, dependence on concentration: 0-100 μM, 15 minutes or 2 hours; for efficiency versus control peptide TAT at low concentration: 1 μM and 10 μM; for cell penetrating activity / translocation efficiency in comparison with TAT (words): HeLa, rhodamine-labelled peptides, overall
# Method: N-terminus of each peptides was labeled with fluorescence dye, rhodamine and C-terminus was protected. Peptide purity (>95%) was determined by HPLC. Synthesis of the peptides was requested to PEPTRON, Inc.
# HeLa cell line (ATCC) was propagated in DMEM (GIBCO) supplemented with 10% FBS (GIBCO) and 100 units/mL penicillin-streptomycin. Cells were grown in a 5% CO2 incubator at 37° C.
# (§1) HeLa cells were cultured in 48-well plate until they were 70˜80% grown up before a day of the experiment. The cells were washed with DMEM of 37° C. twice, and TCTP-derived peptides synthesized in Example 2-1) were treated to the culture medium in a dose dependent manner (0, 1, 5, 10, 50, 100 μM), then the cells was incubated for 15 minutes or 2 hours in an CO2 incubator at 37° C.
# (§2) After the incubation, the cells were washed in cool PBS three times and immediately measured by a microplate fluorescence reader (BIO-TEK instruments, Inc., Vermont, USA) at emission 530 nm and excitation 590 nm for a measurement of rhodamine of intracellular uptake marker. The sensitivity of reader was set at 100 as a basic mode, but was lowered to 75 if the fluorescent signals were too strong. All experiments were conducted in triplet repeats for reproducibility (FIG. 2 and FIG. 3).
# HeLa cells [2] = experiment: Intracellular translocation of alanine substituents of TCTP(1-9), microplate fluorescence reader; details: for decline in uptake, fluorescence intensity of TCTP (1-9) at 100 μM set to 100%: sensitivity 75 (FIG. 5); for penetrating activity of alanine substituents compared with WT TCTP(1-9): HeLa
# Method: N-terminus of each peptide was labeled with fluorescence dye, rhodamine and C-terminus was protected. Peptide purity (>95%) was determined by HPLC. Synthesis of peptides of present invention was requested to PEPTRON, Inc.
# HeLa cell line was propagated in DMEM supplemented with 10% FBS and 100 units/mL penicillin-streptomycin. Cells were grown in a 5% CO2 incubator at 37° C.
# as §1, with “4-1)” for “2-1)”, “1,” for “1, 5,”, “10,” for “10, 50,”
# as §2, with “reader” for “reader (BIO-TEK instruments, Inc., Vermont, USA)”, “basic,” for “basic mode,”, “if” for “if the”, “were” for “were too”, “5” for “2”, “6).” for “3).”
# Meanwhile, when the sensitivity of KC4 plate reader was set down to 75, we could not analyze the result of cell penetrating activity at relatively low concentration of 1 or 10 μM, so sensitivity of reader was fixed at 100 (FIG. 6). At this time, because fluorescence intensity at 100 μM was very strong, we could not express in a same graph.
# HeLa cells [3] = experiment: Intracellular translocation of TCTP-derived peptide by fluorescence microscope; details: 2 hours
# Method: HeLa cells were treated with TCTP (1-9)(SEQ ID No.: 2) at a concentration of 10 μM and 100 μM by the same method of Example 2-2). […] After washing, cells on cover glass attached slide glass were observed (FIG. 4).
# BEAS-2B cell = experiment: Cellular uptake of deletion forms of TCTP, western blot of supernatant and lysate; details: 15 ug/ml
# Method: To overexpress each of those deletion forms of TCTP (FIGS. 1a and 1c), pRSET vector that is capable of tagging 6 histidine was employed. Subcloning with DNA sequences corresponding to each deletion forms of TCTP was performed in the multicloning site of the vector. Then, the recombinant expression vector was introduced into E. coli BL21(DE3)(Novagen) or BL21(DE3)pLysS (Novagen). The expression of the deletion forms of TCTP was induced by IPTG (isopropyl (-D-thiogalactoside) for 3 hours, then the protein was isolated and purified by using Ni column which binds to polyhistidine.
# BEAS-2B cell was treated with the deletion form of TCTP at the concentration of 15 ug/ml with anti-TCTP antibodies (FIG. 1b).
# In addition, it was examined whether TCTP proteins of the present invention could be transferred to cellular interior for a short time, 5 minutes or 30 minutes. The experiment was performed by same method as the above (FIG. 1d).
molecule,measurement,setting,value
"IIYRDLISH ((1)..(9) 2-10 amino acid residue of TCTP; listed as Homo sapiens) [SEQ ID No.: 4, Residues of TCTP(2-10)]","intracellular translocation, dependence on concentration",HeLa cells [1],not translocated at a concentration of 1 μM to 10 μM
same,efficiency versus control peptide TAT at low concentration,HeLa cells [1],"lower efficiency than control peptide, TAT"
same,translocation,"HeLa cells [1]; 100 μM, 15 minutes treatment",more efficiently translocated at 100 μM after 15 minutes treatment
same,cell penetrating activity / translocation efficiency in comparison with TAT (words),HeLa cells [1],excellent cell penetrating activity in comparison with conventional TAT
same,cell penetrating activity / translocation efficiency in comparison with TAT (words),HeLa cells [1]; listed as TCTP (2-10),"superior ability than well-known PTD, TAT in their translocation efficiency"
same,cell penetrating activity / translocation efficiency in comparison with TAT (words),HeLa cells [1]; listed as TCTP(2-10),more excellent penetrating activity than well-known TAT(47-58) peptide
same,translocation versus control peptide TAT(48-57),"HeLa cells [1]; after 2 hours, 100 μM",more efficiently translocated at 100 μM than control peptide
MIIYADLIS (mutant peptide based on human sequence; (1)..(9) TCTP(1-9)R5A) [SEQ ID No.: 12],"decline in uptake, fluorescence intensity of TCTP (1-9) at 100 μM set to 100%",HeLa cells [2]; 2 hours,about 50%
same,penetrating activity of alanine substituents compared with WT TCTP(1-9),HeLa cells [2],still maintained in translocation activity
MIIYRALIS (mutant peptide based on human sequence; (1)..(9) TCTP(1-9)D6A) [SEQ ID No.: 13],"penetrating activity, fluorescence intensity of TCTP (1-9) at 10 μM set to 1","HeLa cells [2]; 10 μM, 2 hours, sensitivity 100 (FIG. 6)",2.5 times
same,"decline in uptake, fluorescence intensity of TCTP (1-9) at 100 μM set to 100%",HeLa cells [2]; 2 hours,about 50%
same,penetrating activity of alanine substituents compared with WT TCTP(1-9),HeLa cells [2],still maintained in translocation activity
MIIYRDLAS [SEQ ID No.: 14],"decline in uptake, fluorescence intensity of TCTP (1-9) at 100 μM set to 100%",HeLa cells [2]; 2 hours,about 50%
MIIYRDLAS [SEQ ID No.: 15] (mutant peptide based on human sequence; (1)..(9) TCTP(1-9)I8A),"decline in uptake, fluorescence intensity of TCTP (1-9) at 100 μM set to 100%",HeLa cells [2]; 2 hours,about 50%
"MIIYRDLI ((1)..(8) 1-8 amino acid residue of TCTP; listed as Homo sapiens) [SEQ ID No.: 3, Residues of TCTP(1-8)]","intracellular translocation, dependence on concentration",HeLa cells [1],translocated not in 1-10 μM but in 50-100 μM
same,efficiency versus control peptide TAT at low concentration,HeLa cells [1],"lower efficiency than control peptide, TAT"
same,cell penetrating activity / translocation efficiency in comparison with TAT (words),HeLa cells [1],excellent cell penetrating activity in comparison with conventional TAT
same,cell penetrating activity / translocation efficiency in comparison with TAT (words),HeLa cells [1]; listed as TCTP (1-8),"superior ability than well-known PTD, TAT in their translocation efficiency"
same,cell penetrating activity / translocation efficiency in comparison with TAT (words),HeLa cells [1]; listed as TCTP(1-8),more excellent penetrating activity than well-known TAT(47-58) peptide
MIIYRDLIA (mutant peptide based on human sequence; (1)..(9) TCTP(1-9)S9A) [SEQ ID No.: 16],"decline in uptake, fluorescence intensity of TCTP (1-9) at 100 μM set to 100%",HeLa cells [2]; 2 hours,about 50%
same,penetrating activity of alanine substituents compared with WT TCTP(1-9),HeLa cells [2],still maintained in translocation activity
"MIIYRDLIS ((1)..(9) 1-9 amino acid residue of TCTP; listed as Homo sapiens) [SEQ ID No.: 2, Residues of TCTP(1-9)]","intracellular translocation, dependence on concentration",HeLa cells [1],translocated not in 1-10 μM but in 50-100 μM
same,efficiency versus control peptide TAT at low concentration,HeLa cells [1],"lower efficiency than control peptide, TAT"
same,cell penetrating activity / translocation efficiency in comparison with TAT (words),HeLa cells [1],excellent cell penetrating activity in comparison with conventional TAT
same,cell penetrating activity / translocation efficiency in comparison with TAT (words),HeLa cells [1]; listed as TCTP (1-9),"superior ability than well-known PTD, TAT in their translocation efficiency"
same,cell penetrating activity / translocation efficiency in comparison with TAT (words),HeLa cells [1]; listed as TCTP(1-9),more excellent penetrating activity than well-known TAT(47-58) peptide
same,intracellular translocation (fluorescence microscope),HeLa cells [3]; 10 μM,weakly translocated
same,intracellular translocation (fluorescence microscope),HeLa cells [3]; 100 μM,strongly
same,intracellular distribution (fluorescence microscope),HeLa cells [3]; HeLa,distributed widely in cytoplasm and nucleus of the cell
"MIIYRDLISH ((1)..(10) 1-10 amino acid residue of TCTP; listed as Homo sapiens) [SEQ ID No.: 1, Residues of TCTP(1-10)]","intracellular translocation, dependence on concentration",HeLa cells [1],translocated not in 1-10 μM but in 50-100 μM
same,efficiency versus control peptide TAT at low concentration,HeLa cells [1],"lower efficiency than control peptide, TAT"
same,"cell penetrating activity, SEQ ID No.: 1 versus SEQ ID No.: 2",HeLa cells [1]; 50 μM (FIGS. 2 & 3),more effective than SEQ ID No.: 2
same,concentration at which translocation was saturated,HeLa cells [1]; 2 hour treatment (FIG. 3),50 µM
same,cell penetrating activity / translocation efficiency in comparison with TAT (words),HeLa cells [1],excellent cell penetrating activity in comparison with conventional TAT
same,cell penetrating activity / translocation efficiency in comparison with TAT (words),HeLa cells [1]; listed as TCTP (1-10),"superior ability than well-known PTD, TAT in their translocation efficiency"
same,cell penetrating activity compared to that of TAT,HeLa cells [1]; treated for 15 minutes in 50 μM,over 3 times
same,cell penetrating activity compared to that of TAT,HeLa cells [1]; treated for 15 minutes in 100 μM,6 times
same,cell penetrating activity compared to that of TAT,"HeLa cells [1]; treatment for 2 hours, 50 μM",about 29 times
same,cell penetrating activity compared to that of TAT,"HeLa cells [1]; treatment for 2 hours, 100 μM",~30 times
"full length TCTP: translationally controlled tumor protein, 172 amino acids, expressed with 6 histidine tag in E. coli (protein, UniProt P13693 1-172, looked up, full-length) MIIYRDLISHDEMFSDIYKIREIADGLCLEVEGKMVSRTEGNIDDSLIGGNASAEGPEGEGTESTVITGVDIVMNHHLQETSFTKEAYKKYIKDYMKSIKGKLEEQRPERVKPFMTGAAEQIKHILANFKNYQFFIGENMNPDGMVALLDYREDGVTPYMIFFKDGLEMEKC","protein in cell supernatant (western blot, anti-TCTP antibodies)",BEAS-2B cell; 24 hours later,disappeared 24 hours later
same,"protein in cell supernatant (western blot, anti-TCTP antibodies)",BEAS-2B cell; incubation for 1 hour,existed in cell supernatants
